Results reported in ChEMBL document CHEMBL4376876 (J Med Chem, 2020).
≈ marks a conversion by molar mass, not a printed value.

Tests used:
[1] = tested on: Mycobacterium tuberculosis; assay: Antibacterial activity against Mycobacterium tuberculosis H37Rv after 7 days by resazurin dye-based assay; format: functional; settings: 168 h
[2] = tested on: Mycobacterium tuberculosis; assay: Antimycobacterial activity against Mycobacterium tuberculosis H37Rv transfected with pMV261 empty vector after 7 days by resazurin dye-based assay; format: functional; settings: 168 h
[3] = tested on: Mycobacterium tuberculosis; assay: Antimycobacterial activity against Mycobacterium tuberculosis H37Rv over expressing InhA after 7 days by resazurin dye-based assay; format: functional; settings: 168 h
[4] = Stability in Middlebrook 7H9 medium at 10 ug/ml after 7 days relative to control; format: physicochemical; settings: read-out: Stability

Q: Which results are given for `CC[C@H]1OC(=O)[C@H](C)[C@H](O)[C@H](Cc2cccnc2)NC(=O)[C@@H](NC(=O)c2ncccc2O)[C@@H](C)OC1=O`?
A: MIC [1]: 4.9 µM (≈ 2.52 µg/mL); MIC [2]: 4.9 µM (≈ 2.52 µg/mL); MIC [3]: > 19.1 µM

Q: With `CC(C)[C@H]1OC(=O)[C@H](C)[C@H](O)[C@H](Cc2cccnc2)NC(=O)[C@@H](NC(=O)c2ncccc2O)[C@@H](C)OC1=O` as the compound, how does the MIC [1] read?
A: 3.2 µM (≈ 1.69 µg/mL)

Q: And the MIC [2]?
A: 3.1 µM (≈ 1.64 µg/mL)

Q: What about the MIC [3] of the same compound?
A: 24.2 µM (≈ 12.8 µg/mL)

Q: For `CC[C@@H](C)[C@H]1OC(=O)[C@H](C)[C@H](O)[C@H](Cc2cccnc2)NC(=O)[C@@H](NC(=O)c2ncccc2O)[C@@H](C)OC1=O`, which MIC [1] is on record?
A: 1.5 µM (≈ 0.814 µg/mL)

Q: Which MIC [1] does the source give for `CC[C@H](C)[C@H]1OC(=O)[C@H](C)[C@H](O)[C@H](Cc2cccnc2)NC(=O)[C@@H](NC(=O)c2ncccc2O)[C@@H](C)OC1=O` here?
A: 2.9 µM (≈ 1.57 µg/mL)

Q: What about the MIC [2] of the same compound?
A: 2.9 µM (≈ 1.57 µg/mL)

Q: And the MIC [3]?
A: 2.9 µM (≈ 1.57 µg/mL)

Q: For `CC/C(C)=C1\OC(=O)[C@H](C)[C@H](O)[C@H](Cc2cccnc2)NC(=O)[C@@H](NC(=O)c2ncccc2O)[C@@H](C)OC1=O` [PYRIDOMYCIN], which MIC [1] is on record?
A: 0.55 to 3.05 µM (≈ 0.297 to 1.65 µg/mL)

Q: What about the remaining at 168 h, 10 ug/ml [4] of the same compound?
A: > 50%

Q: What about the MIC [2] of the same compound?
A: 0.74 µM (≈ 0.4 µg/mL)

Q: And the MIC [3]?
A: 11.6 µM (≈ 6.25 µg/mL)

Q: For `C[C@H](c1ccccc1)[C@H]1OC(=O)[C@H](C)[C@H](O)[C@H](Cc2cccnc2)NC(=O)[C@@H](NC(=O)c2ncccc2O)[C@@H](C)OC1=O`, which MIC [1] is on record?
A: 2.6 µM (≈ 1.54 µg/mL)

Q: For `C[C@@H]1C(=O)N[C@H](C2CCCCC2)C(=O)O[C@H](C)[C@H](NC(=O)c2ncccc2O)C(=O)N[C@@H](Cc2cccnc2)[C@@H]1O`, which MIC [1] is on record?
A: 136 µM (≈ 77.1 µg/mL)

Q: Which MIC [2] does the source give for `NNC(=O)c1ccncc1` [ISONIAZID] here?
A: 1.2 µM (≈ 0.165 µg/mL)

Q: What about the MIC [3] of the same compound?
A: 37.3 µM (≈ 5.12 µg/mL)

Q: For `C[C@H]1OC(=O)[C@@H](CO)OC(=O)[C@H](C)[C@H](O)[C@H](Cc2cccnc2)NC(=O)[C@H]1NC(=O)c1ncccc1O`, which MIC [1] is on record?
A: 96.8 µM (≈ 50 µg/mL)

Q: With `CC(C)[C@@H]1OC(=O)[C@H](C)[C@H](O)[C@H](Cc2cccnc2)NC(=O)[C@@H](NC(=O)c2ncccc2O)[C@@H](C)OC1=O` as the compound, how does the MIC [1] read?
A: 26 µM (≈ 13.7 µg/mL)

Q: With `C[C@H]1OC(=O)[C@@H](Cc2ccccc2)OC(=O)[C@H](C)[C@H](O)[C@H](Cc2cccnc2)NC(=O)[C@H]1NC(=O)c1ncccc1O` as the compound, how does the MIC [1] read?
A: 4.3 µM (≈ 2.48 µg/mL)

Q: What about the MIC [2] of the same compound?
A: 4.3 µM (≈ 2.48 µg/mL)

Q: What about the MIC [3] of the same compound?
A: > 17.3 µM

Q: For `CC(C)[C@H]1NC(=O)[C@@H](C)[C@@H](O)[C@H](Cc2cccnc2)NC(=O)[C@@H](NC(=O)c2ncccc2O)[C@@H](C)OC1=O`, which MIC [1] is on record?
A: 94.6 µM (≈ 49.9 µg/mL)

Q: Which MIC [1] does the source give for `C[C@H]1OC(=O)[C@@H]([C@@H](C)c2ccccc2)OC(=O)[C@H](C)[C@H](O)[C@H](Cc2cccnc2)NC(=O)[C@H]1NC(=O)c1ncccc1O` here?
A: 2.6 µM (≈ 1.54 µg/mL)

Q: For `CC[C@@H](C)[C@H]1NC(=O)[C@H](C)[C@H](O)[C@H](Cc2cccnc2)NC(=O)[C@@H](NC(=O)c2ncccc2O)[C@@H](C)OC1=O`, which MIC [1] is on record?
A: 185 µM (≈ 100 µg/mL)

Q: With `C[C@H]1OC(=O)[C@H](C)[C@H](O)[C@H](Cc2cccnc2)NC(=O)[C@@H](NC(=O)c2ncccc2O)[C@@H](C)OC1=O` as the compound, how does the MIC [1] read?
A: 49.9 µM (≈ 25 µg/mL)
